Reference: patent publication US20220296595A1, “CDK INHIBITORS” (QILU REGOR THERAPEUTICS INC., priority 2019, published 2022)
Read-outs that look alike come from different tables or passages of the source.

Key:
[1] = biological target: T1, CDK4/CyclinD1 (Homo sapiens, UniProt P11802); test: Assay for inhibition of CDK4/CyclinD1 (Caliper microfluidic kinase assay); format: biochemical
T1 construct: purchased Thermofisher PR8064A
Outline: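 IC50 was obtained by 4-parameter sigmoidal fitting after 1 nM CDK4/CyclinD1, 200 μM ATP and 1 μM FL-34 substrate reacted for 3 h at room temperature (pH 7.5 HEPES, 10 mM MgCl2). After EDTA quench, substrate and product were separated and detected on a Caliper microfluidic chip.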

[2] = biological target: T2, CDK2/CyclinE1 (Homo sapiens, UniProt P24941); test: Assay for inhibition of CDK2/CyclinE1 (Caliper microfluidic kinase assay); format: biochemical; conditions: read-out: CDK2 IC50
T2 construct: purchased SignalChem C29-18G
Outline: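 IC50 came from 4-parameter fits of substrate-to-product conversion, separated on a Caliper chip after an EDTA stop. Reactions ran 3 hours at room temperature with 100 μM ATP, 5 μM fluorescent FL-18 peptide and 5 nM enzyme in 100 mM HEPES pH 7.5, 10 mM MgCl2.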

[3] = system: phosphorylation of Retinoblastoma Protein (pRb Ser807/811 or Ser780) in T47D cells; test: Inhibition of phosphorylation of retinoblastoma protein (pRb) in T47D cell (ELISA); format: cell-based, human; conditions: Homo sapiens, T47D, read-out: Phospho T47D Ser807 IC50, pRb Ser807 phosphorylation, T47D cells
Protocol: T47D breast cancer cells from American Type Culture Collection (ATCC, HTB-133) were plated at 40,000 cells/well in 96-well plates, and were incubated in RPMI 1640 medium (Gibco, 31800105) with 10% Fetal Bovine Serum (FBS, Biowest, FB-1058). Cells were then allowed to adhere overnight at 37° C., 5% CO2. The following day, compounds were titrated in a 3-fold dilution scheme, and the highest compound concentration tested was […]. After 24 hours incubation with compounds, cells were lysed in ice-cold lysis buffer containing phosphatase inhibitor cocktail and 1 mM PMSF. Cell lysates (50 μL/well) were then transferred to ELISA plates (pRb Ser807/811 ELISA kit, Cell Signaling, 13152 or pRb Ser780 ELISA kit, Cell Signaling, 13016)). Plates were incubated overnight at 4° C., with constant slow speed shaking. After incubation, plates were washed following manufacturer's recommendations, and then 100 μL reconstituted detection antibody was added to each well and incubated for 1 hour at 37° C. After incubation, plates were washed, and then 100 μL reconstituted HRP-linked secondary antibody was added to each well and incubated for 30 mins at 37° C. After incubation, plates were washed. Then, 100 μL TMB substrate was added to each well and incubated for 10 min at 37° C. or 30 min at 25° C. Finally, 100 μL of STOP solution was added to each well and mixed gently for a few seconds. Plates were read on the Envision plate reader (PerkinElmer, 2104-0010) using the 96-well […] mode. IC50 values were calculated using 4 parameter sigmoidal dose-response model of Xlfit5/GraphPad Prism 5 software.

[4] = system: T47D breast cancer cells; test: Anti-proliferation assay in T47D cell (Cyquant, day 6); format: cell-based, human; conditions: Homo sapiens, T47D, read-out: T47D IC50
Outline: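 A ten-point, 3-fold compound series (10 μM down to 0.51 nM) was applied to overnight-settled cells in 10% FBS RPMI 1640, and DNA content was read by CyQuant fluorescence 6 days later. An untreated plate read before dosing served as baseline for subtraction before IC50 fitting.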

[5] = biological target: T3, CDK6/CyclinD3 (Homo sapiens, UniProt Q00534); test: Assay for inhibition of CDK6/CyclinD3 (Caliper microfluidic kinase assay); format: biochemical
T3 construct: purchased Carna 04-107
T3 sequence (Q00534 whole entry): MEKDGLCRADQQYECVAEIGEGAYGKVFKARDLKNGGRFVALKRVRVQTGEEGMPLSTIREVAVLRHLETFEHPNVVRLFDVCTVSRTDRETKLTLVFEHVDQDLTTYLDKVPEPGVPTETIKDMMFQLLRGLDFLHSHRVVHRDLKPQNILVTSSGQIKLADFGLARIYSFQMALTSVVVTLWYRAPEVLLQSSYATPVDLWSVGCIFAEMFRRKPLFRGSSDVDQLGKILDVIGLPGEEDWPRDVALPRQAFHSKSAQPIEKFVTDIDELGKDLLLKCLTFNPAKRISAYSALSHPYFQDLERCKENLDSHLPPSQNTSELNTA
T3 sequence (P30281 whole entry partner): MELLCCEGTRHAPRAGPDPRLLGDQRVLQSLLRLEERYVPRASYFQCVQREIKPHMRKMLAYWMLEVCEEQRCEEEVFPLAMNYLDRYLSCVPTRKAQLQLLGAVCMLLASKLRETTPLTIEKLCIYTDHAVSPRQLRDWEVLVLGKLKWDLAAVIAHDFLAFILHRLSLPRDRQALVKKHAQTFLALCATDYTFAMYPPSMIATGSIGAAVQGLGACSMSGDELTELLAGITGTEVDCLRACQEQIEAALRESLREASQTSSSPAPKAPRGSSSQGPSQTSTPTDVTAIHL
Outline: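 IC50s came from four-parameter dose-response fits of microfluidic substrate/product separation data. Reactions held 2 nM CDK6/CyclinD3, 300 μM ATP and 1 μM 5-FAM peptide FL-34 in pH 7.5 HEPES/MgCl2 buffer, ran 3 hours at room temperature, then were quenched with EDTA.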

T1 sequence (P11802 whole entry): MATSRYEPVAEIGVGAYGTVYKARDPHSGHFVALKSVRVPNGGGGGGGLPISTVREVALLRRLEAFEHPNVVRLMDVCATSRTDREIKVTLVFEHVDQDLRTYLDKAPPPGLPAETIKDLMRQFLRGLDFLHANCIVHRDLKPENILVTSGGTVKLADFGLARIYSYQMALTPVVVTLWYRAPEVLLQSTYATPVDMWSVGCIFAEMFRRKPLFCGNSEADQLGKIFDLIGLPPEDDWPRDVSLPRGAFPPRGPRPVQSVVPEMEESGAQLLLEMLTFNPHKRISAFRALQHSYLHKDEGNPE
T1 sequence (P24385 whole entry partner): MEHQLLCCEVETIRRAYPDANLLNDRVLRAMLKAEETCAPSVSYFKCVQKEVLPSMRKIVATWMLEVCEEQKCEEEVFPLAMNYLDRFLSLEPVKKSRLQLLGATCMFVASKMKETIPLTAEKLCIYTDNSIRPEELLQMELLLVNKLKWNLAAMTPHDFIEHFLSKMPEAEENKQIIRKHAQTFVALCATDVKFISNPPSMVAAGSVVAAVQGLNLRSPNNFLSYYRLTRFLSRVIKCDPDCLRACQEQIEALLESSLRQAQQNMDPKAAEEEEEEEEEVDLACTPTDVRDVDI

Row | SMILES | IC50 ([1]; CDK4/CyclinD1, 200 μM ATP) [nM] | IC50 ([2]; CDK2/CyclinE1, 100 μM ATP) [nM] | IC50 [3] [nM] | IC50 ([4]; anti-proliferation, T47D cells) [nM] | IC50 ([5]; CDK6/CyclinD3, 300 μM ATP) [nM] | IC50 ([1]; CDK4/CyclinD1) [nM] | IC50 ([2]; CDK2/CyclinE1) [nM] | IC50 ([5]; CDK6/CyclinD3) [nM] | IC50 [4] [nM]
1 | CC(C)c1cnn2ccc(-c3ccnc(Nc4ccc(N5CCCC(N)C5=O)cn4)n3)cc12 (stereo not shown) [compound 207] | < 10 | 10 to 100 | < 100 | < 100 | < 10 | – | – | – | –
2 | COc1nc(-c2nc(Nc3ccc(N4CCC(N(C)C)CC4=O)cn3)ncc2F)cc2c1nc(C)n2C(C)C (single isomer, unassigned) [Example 62-1, 4-(dimethylamino)-1-[6-[[5-fluoro-4-(1-isopropyl-4-methoxy-2-methyl-imidazo[4,5-c]pyridin-6-yl)pyrimidin-2-yl]amino]-3-pyridyl]piperidin-2-one] | < 10 | > 1000 | 100 to 500 | 100 to 500 | 10 to 100 | – | – | – | –
3 | CC(C)c1cnn2ccc(-c3ccnc(Nc4ccc(N5CCCC(N(C)C)C5=O)cn4)n3)cc12 (stereo not shown) [compound 157] | < 10 | 100 to 1000 | < 100 | < 100 | 10 to 100 | – | – | – | –
4 | CC(C)c1cnn2ccc(-c3ccnc(Nc4ccc(N5CCOCC5=O)cn4)n3)cc12 [compound 28] | < 10 | < 10 | < 100 | < 100 | 10 to 100 | – | – | – | –
5 | CC(C)n1cnc2c(OC(F)F)nc(-c3ccnc(Nc4ccc(N5CCOCC5=O)cn4)n3)cc21 [compound 63] | – | – | < 100 | 100 to 500 | – | < 10 | 100 to 1000 | 10 to 100 | –
6 | CC(C)c1cnn2ccc(-c3ccnc(Nc4ccc(N5CCC(C)(N)CC5=O)cc4)n3)cc12 (stereo not shown) [compound 202] | < 10 | < 10 | < 100 | < 100 | < 10 | – | – | – | –
7 | CC(C)n1cnc2c(F)nc(-c3ccnc(Nc4ccc(N5CCNCC5)cn4)n3)cc21 [compound 286] | < 10 | 100 to 1000 | < 100 | < 100 | 10 to 100 | – | – | – | –
8 | COc1nc(-c2nc(Nc3ccc(N4CCN(CCF)CC4=O)cn3)ncc2F)cc2c1ncn2C(C)C [compound 126] | < 10 | 100 to 1000 | 100 to 500 | 100 to 500 | 10 to 100 | – | – | – | –
9 | CCN1CCN(c2ccc(Nc3ncc(F)c(-c4cc5c(nc(C)n5C(C)C)c(OC)n4)n3)nc2)C(=O)C1 [Synthetic Example 128] | < 10 | > 1000 | < 100 | – | 10 to 100 | – | – | – | 100 to 500
10 | CC(C)c1cnn2ccc(-c3ccnc(Nc4ccc(N5CCC(N6CC(F)C6)CC5=O)cn4)n3)cc12 (stereo not shown) [compound 162] | < 10 | 10 to 100 | < 100 | < 100 | 10 to 100 | – | – | – | –
11 | CC(C)c1cnn2ccc(-c3nc(Nc4ccc(N5CCN(C6COC6)CCC5=O)cn4)ncc3F)cc12 [Synthetic Example 43] | < 10 | 10 to 100 | < 100 | < 100 | 10 to 100 | – | – | – | –
12 | CC(C)c1cnn2ccc(-c3ccnc(Nc4ccc(C(N)=O)cc4)n3)cc12 [compound 168] | < 10 | < 10 | < 100 | < 100 | 10 to 100 | – | – | – | –
13 | COc1nc(-c2nc(Nc3ccc(N4CCCCC4=O)cn3)ncc2F)cc2c1nc(C)n2C(C)C [compound 93] | – | – | 100 to 500 | 100 to 500 | – | < 10 | > 1000 | 10 to 100 | –
14 | CCN1CCN(c2ccc(Nc3ncc(F)c(-c4cc5c(ncn5C(C)C)c(OC)n4)n3)nc2)C(=O)C1 [compound 132] | < 10 | > 1000 | < 100 | 100 to 500 | 10 to 100 | – | – | – | –
15 | CC(C)c1cnn2ccc(-c3ccnc(Nc4ccc(N5CC(N(C)C)CC5=O)cn4)n3)cc12 (stereo not shown) [Synthetic Example 39] | < 10 | 10 to 100 | < 100 | < 100 | 10 to 100 | – | – | – | –
16 | CC(C)n1cnc2c1CN(c1ccnc(Nc3ccc(N4CCCNC4=O)cn3)n1)CC2 [compound 242] | < 10 | 100 to 1000 | < 100 | 500 to 1000 | 10 to 100 | – | – | – | –

Row | SMILES | IC50 ([1]; CDK4/CyclinD1, 200 μM ATP) [nM] | IC50 ([2]; CDK2/CyclinE1, 100 μM ATP) [nM] | IC50 [3] [nM] | IC50 ([4]; anti-proliferation, T47D cells) [nM] | IC50 ([5]; CDK6/CyclinD3, 300 μM ATP) [nM] | IC50 ([1]; CDK4/CyclinD1) [nM] | IC50 ([2]; CDK2/CyclinE1) [nM] | IC50 ([5]; CDK6/CyclinD3) [nM] | IC50 [4] [nM]
17 | CC(C)c1cnn2ccc(-c3nc(Nc4ccc(N5C(=O)CC6CC5CN6)cn4)ncc3F)cc12 (stereo not shown) [compound 198] | < 10 | 10 to 100 | < 100 | < 100 | 10 to 100 | – | – | – | –
18 | CC(C)c1cnn2ccc(-c3nc(Nc4ccc(N5CCCNCC5=O)cn4)ncc3F)cc12 [compound 33] | < 10 | 10 to 100 | < 100 | < 100 | 10 to 100 | – | – | – | –
19 | COc1nc(-c2ccnc(Nc3ccc(CN4CCC(C#N)CC4)cn3)n2)cc2c1ncn2C(C)C [compound 68] | – | – | < 100 | 100 to 500 | – | < 10 | > 1000 | 10 to 100 | –
20 | CC1(C)COc2c(F)cc(-c3ccnc(Nc4ccc(N5CCNCC5=O)cn4)n3)cc21 [Synthetic Example 59] | < 10 | 10 to 100 | < 100 | < 100 | 10 to 100 | – | – | – | –
21 | CC(C)c1cnn2ccc(-c3ccnc(Nc4ccc(N5CCN(C6COC6)CC5=O)cn4)n3)cc12 [compound 234] | < 10 | 10 to 100 | < 100 | < 100 | 10 to 100 | – | – | – | –
22 | COc1nc(-c2ccnc(Nc3ccc(N4CCNCC4=O)nc3)n2)cc2c1ncn2C(C)C [compound 119] | < 10 | 10 to 100 | 100 to 500 | – | 10 to 100 | – | – | – | –
23 | CN(C)C1CCCN(c2ccc(Nc3nccc(-c4cc(F)c5c(c4)C(C)(C)CO5)n3)nc2)C1=O (stereo not shown) [compound 261] | < 10 | > 1000 | < 100 | – | 10 to 100 | – | – | – | –
24 | CCN1CCN(c2ccc(Nc3nccc(-c4cc5c(ncn5C(C)C)c(F)n4)n3)nc2)CC1 [compound 289] | < 10 | 100 to 1000 | < 100 | – | < 10 | – | – | – | –
25 | COc1nc(-c2ccnc(Nc3ccc(N4CCC(N5CCOCC5)CC4=O)cn3)n2)cc2c1ncn2C(C)C (stereo not shown) [compound 100] | – | – | 100 to 500 | – | – | < 10 | 100 to 1000 | 10 to 100 | –
26 | CC(C)(C)c1cnn2ccc(-c3ccnc(Nc4ccc(N5CCCC(N)C5=O)cc4)n3)cc12 (stereo not shown) [compound 218] | < 10 | < 10 | < 100 | – | < 10 | – | – | – | –
27 | CCN1CCN(Cc2ccc(Nc3ncc(F)c(-c4cc(C)n5ncc(C(C)C)c5c4)n3)nc2)CC1 [compound 5] | 10 to 100 | – | > 1000 | > 1000 | 100 to 1000 | – | – | – | –
28 | COc1nc(-c2ccnc(Nc3ccc4c(n3)CCN(C(=O)CN(C)C)C4)n2)cc2c1ncn2C(C)C [Synthetic Example 140] | < 10 | > 1000 | < 100 | – | 10 to 100 | – | – | – | –
29 | COc1nc(-c2ccnc(Nc3ccc(N4CCN(C5COC5)CC4=O)cn3)n2)cc2c1ncn2C(C)C [compound 137] | < 10 | 100 to 1000 | < 100 | – | 10 to 100 | – | – | – | –
30 | CCN1CCN(c2ccc(Nc3nccc(-c4cc5c(ncn5C(C)C)c(OC)n4)n3)nc2)C(=O)C1 [compound 134] | < 10 | 100 to 1000 | < 100 | – | 10 to 100 | – | – | – | –
31 | CC(C)c1cnn2ccc(-c3nc(Nc4ccc(N5CCN(CCO)CCC5=O)cn4)ncc3F)cc12 [Synthetic Example 52] | < 10 | 10 to 100 | < 100 | – | 10 to 100 | – | – | – | –
